Columns and labels:
[1] = tested on: H9c2 cells; experiment: Menadione-induced toxicity (LDH) in H9c2 cells; format: cell-based, rat
Protocol: H9c2 cells, a permanent cell line derived from cardiac myoblasts of rat embryo, have early been characterized as a suitable model of myocardial cells [Hescheler et al. 1991]. H9c2 cells were cultured as monolayers in Dulbecco's modified Eagle's medium (GIBCO BRL) supplemented with 10% (v/v) fetal bovine serum. The medium contained glucose (4.5 g/L) and glutamine (4.5 mM), supplemented with NaHCO3 (17 mM), penicillin (100 IU/ml), and streptomycin (100 μg/ml). Cells were grown under an atmosphere of 5% CO2 in air at 37° C. The medium was replaced by fresh medium every 2 or 3 days. A stock of cells was grown in a 75 cm culture flask and split before confluence at a subcultivation ratio of 1:10. Cells used for experiments were seeded at a density of 3.75×10^4 cells/well on a 12-well culture plate, and the cells were grown for 24 h to about 80% confluence prior to drug treatment.
Cultured H9c2 cells were treated with (−) Schisandrin B, (+) Schisandrin B or (±) Schisandrin B (dissolved in DMSO) at 6.25 μM (0.2% DMSO final concentration) for 16 h. Control cells were given the vehicle (i.e. DMSO) only. Immediately following the drug or vehicle pretreatment, the cells were challenged with menadione (dissolved in ethanol) at 12.5 μM (0.2% ethanol final concentration) for 4 h. The control cells were treated with the medium containing 0.2% ethanol only. After the menadione challenge, the medium was taken for the measurement of LDH activity, an biochemical index of cell injury.

[2] = tested on: mitochondria of brain, heart, liver and skeletal muscle; experiment: Mitochondrial ATP generation capacity in various tissues of young female rats; format: in vivo, rat; details: 15 days; for ATP generation: (−) Sch B, α-LA, α-Toc at daily 10, 5 and 70 mg/kg respectively
[3] = tested on: isolated heart; experiment: Myocardial I-R injury (LDH leakage) in young adult and middle-aged rats; format: in vivo, rat; details: 10 mg/kg/day x 35
Protocol: (§1) Young adult (8-10 week-old) and middle-aged (12-14 month-old retired breeder) female Sprague-Dawley rats were maintained under a 12-h dark/light cycle at about 22° C. and allowed food and water ad libitum. Experimental protocols were approved by the Research Practice Committee at the Hong Kong University of Science & Technology, Hong Kong. Animals were randomly divided into groups, with 5 animals in each. In the treatment groups, rats were intragastrically administered with Sch B (dissolved/suspended in olive oil) at a daily dose of 10 mg/kg for 15 days. The daily dose is approximated to 1.14 mg/kg for humans after adjusting the inter-species difference in drug distribution in the body. Untreated control animals received olive oil only. Twenty-four hours after the last dosing, animals were sacrificed by decapitation and the whole brain, heart ventricular, liver and skeletal muscle (hind limb) tissues were excised and subjected to biochemical analysis. To investigate the effect of (−) Sch B on myocardial ischemia-reperfusion […] injury, rats were intragastrically administered with (−) Sch B at a daily dose of 10 mg/kg for 35 days. Untreated control animals received olive oil only. Twenty-four hours after the last dosing, hearts were isolated from pentobarbital-anesthetized animals and subjected to I-R experiment. […]

[4] = tested on: mitochondria of brain, heart, liver and skeletal muscle; experiment: Mitochondrial reactive oxidant species (ROS) generation in tissues of young adult and middle-aged rats; format: in vivo, rat
Protocol: as §1, with “only.” for “only. Twenty-four hours after the last dosing, hearts were isolated from pentobarbital-anesthetized animals and subjected to I-R experiment.”
Mitochondrial pellets were prepared from tissue homogenates by centrifugation at 800×g at 4° C. for 30 min, with purity being determined by measuring the relative specific activities of succinate dehydrogenase and lactate dehydrogenase (LDH) in the supernatant and mitochondrial pellet. […] The protein concentration of mitochondrial fractions was determined using a Bio-Rad protein assay kit.
An aliquot (50 μl) of mitochondrial fraction (50 μg protein/ml) and 60 μl of DCFDA solution (17.5 μM in incubation buffer) were added into wells of a black micro-titer plate. […] Fluorescence intensity (excitation: 485 nm and emission: 535 nm) of the reaction mixture was monitored every 5 min for 60 min. The mitochondrial ROS generation was reflected by the fluorescence intensity of the sample after subtracting the value of a blank sample containing incubation buffer, substrate solution and DCFDA. […]

[5] = MENADIONE 12.5 μM for 4 h, drug 6.25 μM for 16 h

COc1cc2c(c(OC)c1OC)-c1c(cc3c(c1OC)OCO3)CC(C)C(C)C2 (single isomer, unassigned; (-)) [(−) Sch B, (−) Schisandrin B]
LDH [1, 5]: 20.6 ± 0.18 U/ml | LDH, percent protection vs menadione control [1, 5]: (60%) | LDH ([1]; NON-MENADIONE, 6.25 μM for 16 h): 14.3 ± 0.29 U/ml | ATP generation ([2]; BRAIN): 143 ± 2 percent control | ATP generation ([2]; HEART): 131 ± 4 percent control | ATP generation ([2]; LIVER): 134 ± 5 percent control | change in ATP generation in skeletal muscle tissue ([2]; SKELETAL MUSCLE, 10 mg/kg daily): No detectable change | ATP generation ([2]; SKELETAL MUSCLE): 105 ± 41 percent control | degree of protection against myocardial I-R injury ([3]; middle-aged rats): 36% | degree of protection against myocardial I-R injury ([3]; young adult rats): 55% | decrease of mitochondrial ROS generation ([4]; middle-aged rats, 10 mg/kg/day x 15, range among tissues): 11-23% | difference in liver mitochondrial ROS generation between control and treated ([4]; middle-aged rats, liver): not statistically significant | suppression of mitochondrial ROS generation ([4]; young adult rats, 10 mg/kg/day x 15, range among all tissues): 16-38%
